≈ marks a conversion by molar mass, not a printed value.
How the values were obtained:
Escherichia coli [1] = test: Antibacterial activity against Escherichia coli EIR2b selected at 2 times MIC of imipenem by microdilution method; type: functional
[2] = Displacement of [14C]benzylpenicillin from PBP2 in Pseudomonas aeruginosa ATCC 15692
Escherichia coli [3] = test: Antibacterial activity against Escherichia coli ERR4a selected at 4 times MIC of tomopenem by microdilution method; type: functional
[4] = Displacement of [14C]benzylpenicillin from PBP6 Escherichia coli NIHJ
Escherichia coli [5] = test: Antibacterial activity against Escherichia coli EIR4b selected at 4 times MIC of imipenem by microdilution method; type: functional
Staphylococcus aureus [6] = test: Antibacterial activity against Staphylococcus aureus SMR2a selected at 2 times MIC of meropenem by microdilution method; type: functional
Escherichia coli [7] = test: Antibacterial activity against Escherichia coli ERR2b selected at 2 times MIC of tomopenem by microdilution method; type: functional
[8] = Displacement of [14C]benzylpenicillin from PBP1A in Pseudomonas aeruginosa ATCC 15692
Escherichia coli [9] = test: Antibacterial activity against Escherichia coli ERR2a selected at 2 times MIC of tomopenem by microdilution method; type: functional
[10] = Displacement of [14C]benzylpenicillin from PBP3 in Staphylococcus aureus ATCC 6538P
Escherichia coli [11] = test: Ratio of MIC for Escherichia coli EIR2b to MIC for Escherichia coli NIHJ; type: functional
[12] = Displacement of [14C]benzylpenicillin from PBP1B in Escherichia coli NIHJ
[13] = Displacement of [14C]benzylpenicillin from PBP1A in Escherichia coli NIHJ
[14] = Displacement of [14C]benzylpenicillin from PBP4 in Escherichia coli NIHJ
Pseudomonas aeruginosa [15] = test: Ratio of MIC for Pseudomonas aeruginosa PMR2a to MIC for Pseudomonas aeruginosa ATCC 15692; type: functional
[16] = Displacement of [14C]benzylpenicillin from PBP3 in Escherichia coli NIHJ
Escherichia coli [17] = test: Ratio of MIC for Escherichia coli ERR2b to MIC for Escherichia coli NIHJ; type: functional
Pseudomonas aeruginosa [18] = test: Antibacterial activity against Pseudomonas aeruginosa PRR4a selected at 4 times MIC of tomopenem by microdilution method; type: functional
[19] = Displacement of [14C]benzylpenicillin from PBP 5 in Pseudomonas aeruginosa ATCC 15692
Staphylococcus aureus [20] = test: Antibacterial activity against Staphylococcus aureus SIR2a selected at 2 times MIC of imipenem by microdilution method; type: functional
Staphylococcus aureus [21] = test: Ratio of MIC for Staphylococcus aureus SMR2a to MIC for Staphylococcus aureus ATCC 6538P; type: functional
[22] = Displacement of [14C]benzylpenicillin from PBP5 in Escherichia coli NIHJ
Pseudomonas aeruginosa [23] = test: Antibacterial activity against Pseudomonas aeruginosa ATCC 15692 by microdilution method; type: functional, organism-based
Escherichia coli [24] = test: Antibacterial activity against Escherichia coli EIR4a selected at 4 times MIC of imipenem by microdilution method; type: functional
Escherichia coli [25] = test: Antibacterial activity against Escherichia coli EIR2a selected at 2 times MIC of imipenem by microdilution method; type: functional
Pseudomonas aeruginosa [26] = test: Antibacterial activity against Pseudomonas aeruginosa PIR2a selected at 2 times MIC of imipenem by microdilution method; type: functional
Escherichia coli [27] = test: Antibacterial activity against Escherichia coli EMR2a selected at 2 times MIC of meropenem by microdilution method; type: functional
Escherichia coli [28] = test: Antibacterial activity against Escherichia coli EIR8a selected at 8 times MIC of imipenem by microdilution method; type: functional
Escherichia coli [29] = test: Ratio of MIC for Escherichia coli ERR4a to MIC for Escherichia coli NIHJ; type: functional
Escherichia coli [30] = test: Antibacterial activity against Escherichia coli NIHJ by microdilution method; type: functional, organism-based
[31] = Displacement of [14C]benzylpenicillin from PBP 6 in Pseudomonas aeruginosa ATCC 15692
[32] = Displacement of [14C]benzylpenicillin from PBP1B in Pseudomonas aeruginosa ATCC 15692
Escherichia coli [33] = test: Ratio of MIC for Escherichia coli EIR4a to MIC for Escherichia coli NIHJ; type: functional
Staphylococcus aureus [34] = test: Antibacterial activity against Staphylococcus aureus SRR2a selected at 2 times MIC of tomopenem by microdilution method; type: functional
[35] = Displacement of [14C]benzylpenicillin from PBP4 in Staphylococcus aureus ATCC 6538P
Pseudomonas aeruginosa [36] = test: Ratio of MIC for Pseudomonas aeruginosa PRR4a to MIC for Pseudomonas aeruginosa ATCC 15692; type: functional
Staphylococcus aureus [37] = test: Ratio of MIC for Staphylococcus aureus SIR2a selected at 2 times MIC of imipenem to MIC for Staphylococcus aureus ATCC 6538P; type: functional
Escherichia coli [38] = test: Ratio of MIC for Escherichia coli ERR2a selected to MIC for Escherichia coli NIHJ; type: functional
Escherichia coli [39] = test: Ratio of MIC for Escherichia coli EIR2a to MIC for Escherichia coli NIHJ; type: functional
Pseudomonas aeruginosa [40] = test: Antibacterial activity against Pseudomonas aeruginosa PMR2a selected at 2 times MIC of meropenem by microdilution method; type: functional
Staphylococcus aureus [41] = test: Antibacterial activity against Staphylococcus aureus SMR4a […] MIC of meropenem by microdilution method; type: functional
[42] = Displacement of [14C]benzylpenicillin from PBP4 in Pseudomonas aeruginosa ATCC 15692
Escherichia coli [43] = test: Ratio of MIC for Escherichia coli ERR8a to MIC for Escherichia coli NIHJ; type: functional
Escherichia coli [44] = test: Ratio of MIC for Escherichia coli EIR4b to MIC for Escherichia coli NIHJ; type: functional
Escherichia coli [45] = test: Ratio of MIC for Escherichia coli EIR8a to MIC for Escherichia coli NIHJ; type: functional
[46] = Displacement of [14C]benzylpenicillin from PBP1 in Staphylococcus aureus ATCC 6538P
Pseudomonas aeruginosa [47] = test: Ratio of MIC for Pseudomonas aeruginosa PIR2a to MIC for Pseudomonas aeruginosa ATCC 15692; type: functional
Staphylococcus aureus [48] = test: Ratio of MIC for Staphylococcus aureus SMR4a to MIC for Staphylococcus aureus ATCC 6538P; type: functional
[49] = Displacement of [14C]benzylpenicillin from PBP2 Staphylococcus aureus ATCC 6538P
[50] = Displacement of [14C]benzylpenicillin from PBP3 in Pseudomonas aeruginosa ATCC 15692
Escherichia coli [51] = test: Ratio of MIC for Escherichia coli EMR2a to MIC for Escherichia coli NIHJ; type: functional
Staphylococcus aureus [52] = test: Ratio of MIC for Staphylococcus aureus SRR2a to MIC for Staphylococcus aureus ATCC 6538P; type: functional
Staphylococcus aureus [53] = test: Antibacterial activity against Staphylococcus aureus ATCC 6538P by microdilution method; type: functional, organism-based
[54] = Displacement of [14C]benzylpenicillin from PBP2 in Escherichia coli NIHJ
Escherichia coli [55] = test: Antibacterial activity against Escherichia coli ERR8a selected at 8 times MIC of tomopenem by microdilution method; type: functional

Structure (SMILES): C[C@@H](O)[C@H]1C(=O)N2C(C(=O)O)=C(S[C@@H]3CN[C@H](C(=O)N(C)C)C3)[C@H](C)[C@H]12 [MEROPENEM]
- MIC (Escherichia coli [1]): 0.03 µg/mL
- IC50 [2]: 0.018 µg/mL (≈ 0.0469 µM)
- MIC (Escherichia coli [3]): 0.06 µg/mL
- IC50 [4]: 15 µg/mL (≈ 39.1 µM)
- MIC (Escherichia coli [5]): 0.12 µg/mL
- MIC (Staphylococcus aureus [6]): 0.25 µg/mL
- MIC (Escherichia coli [7]): 0.06 µg/mL
- IC50 [8]: 0.12 µg/mL (≈ 0.313 µM)
- MIC (Escherichia coli [9]): 0.03 µg/mL
- IC50 [10]: > 130 µg/mL
- Ratio MIC (Escherichia coli [11]): 1
- IC50 [12]: 0.77 µg/mL (≈ 2.01 µM)
- IC50 [13]: 0.82 µg/mL (≈ 2.14 µM)
- IC50 [14]: 0.047 µg/mL (≈ 0.123 µM)
- Ratio MIC (Pseudomonas aeruginosa [15]): 16
- IC50 [16]: 0.39 µg/mL (≈ 1.02 µM)
- Ratio MIC (Escherichia coli [17]): 2
- MIC (Pseudomonas aeruginosa [18]): 2 µg/mL
- IC50 [19]: 4.5 µg/mL (≈ 11.7 µM)
- MIC (Staphylococcus aureus [20]): 0.12 µg/mL
- Ratio MIC (Staphylococcus aureus [21]): 8
- IC50 [22]: 1.2 µg/mL (≈ 3.13 µM)
- MBC (Pseudomonas aeruginosa [23]): 1 µg/mL (≈ 2.61 µM)
- MIC (Pseudomonas aeruginosa [23]): 1 µg/mL (≈ 2.61 µM)
- MIC (Escherichia coli [24]): 0.03 µg/mL
- MIC (Escherichia coli [25]): 0.03 µg/mL
- MIC (Pseudomonas aeruginosa [26]): 4 µg/mL
- MIC (Escherichia coli [27]): 0.06 µg/mL
- MIC (Escherichia coli [28]): 0.03 µg/mL
- Ratio MIC (Escherichia coli [29]): 2
- MBC (Escherichia coli [30]): 0.03 µg/mL (≈ 0.0782 µM)
- MIC (Escherichia coli [30]): 0.03 µg/mL (≈ 0.0782 µM)
- IC50 [31]: 4.5 µg/mL (≈ 11.7 µM)
- IC50 [32]: 0.11 µg/mL (≈ 0.287 µM)
- Ratio MIC (Escherichia coli [33]): 1
- MIC (Staphylococcus aureus [34]): 0.25 µg/mL
- IC50 [35]: 0.071 µg/mL (≈ 0.185 µM)
- Ratio MIC (Pseudomonas aeruginosa [36]): 4
- Ratio MIC (Staphylococcus aureus [37]): 4
- Ratio MIC (Escherichia coli [38]): 1
- Ratio MIC (Escherichia coli [39]): 1
- MIC (Pseudomonas aeruginosa [40]): 8 µg/mL
- MIC (Staphylococcus aureus [41]): 0.25 µg/mL
- IC50 [42]: 0.0033 µg/mL (≈ 0.00861 µM)
- Ratio MIC (Escherichia coli [43]): 2
- Ratio MIC (Escherichia coli [44]): 4
- Ratio MIC (Escherichia coli [45]): 1
- IC50 [46]: 0.044 µg/mL (≈ 0.115 µM)
- Ratio MIC (Pseudomonas aeruginosa [47]): 8
- ratio (Staphylococcus aureus [48]): 8
- IC50 [49]: 0.26 µg/mL (≈ 0.678 µM)
- IC50 [50]: 0.013 µg/mL (≈ 0.0339 µM)
- Ratio MIC (Escherichia coli [51]): 2
- Ratio MIC (Staphylococcus aureus [52]): 8
- IC50 (Staphylococcus aureus [53]): 0.06 µg/mL (≈ 0.156 µM)
- MBC (Staphylococcus aureus [53]): 0.12 µg/mL (≈ 0.313 µM)
- MIC (Staphylococcus aureus [53]): 0.06 µg/mL (≈ 0.156 µM)
- IC50 [54]: 0.016 µg/mL (≈ 0.0417 µM)
- MIC (Escherichia coli [55]): 0.06 µg/mL

— ChEMBL document CHEMBL1629655, “Affinity of Tomopenem (CS-023) for penicillin-binding proteins in Staphylococcus aureus, Escherichia coli, and Pseudomonas aeruginosa” (Antimicrob Agents Chemother, 2009)
